Source: patent publication US8461145B2 (priority 2007, dated 2013)

Biological target: Human TRPA1 (Homo sapiens, UniProt O75762)
Experiment: cell-based
Conditions: for EC50: pEC50 values for TRPA1 agonism

Sequence of Human TRPA1 (O75762 whole entry, looked up): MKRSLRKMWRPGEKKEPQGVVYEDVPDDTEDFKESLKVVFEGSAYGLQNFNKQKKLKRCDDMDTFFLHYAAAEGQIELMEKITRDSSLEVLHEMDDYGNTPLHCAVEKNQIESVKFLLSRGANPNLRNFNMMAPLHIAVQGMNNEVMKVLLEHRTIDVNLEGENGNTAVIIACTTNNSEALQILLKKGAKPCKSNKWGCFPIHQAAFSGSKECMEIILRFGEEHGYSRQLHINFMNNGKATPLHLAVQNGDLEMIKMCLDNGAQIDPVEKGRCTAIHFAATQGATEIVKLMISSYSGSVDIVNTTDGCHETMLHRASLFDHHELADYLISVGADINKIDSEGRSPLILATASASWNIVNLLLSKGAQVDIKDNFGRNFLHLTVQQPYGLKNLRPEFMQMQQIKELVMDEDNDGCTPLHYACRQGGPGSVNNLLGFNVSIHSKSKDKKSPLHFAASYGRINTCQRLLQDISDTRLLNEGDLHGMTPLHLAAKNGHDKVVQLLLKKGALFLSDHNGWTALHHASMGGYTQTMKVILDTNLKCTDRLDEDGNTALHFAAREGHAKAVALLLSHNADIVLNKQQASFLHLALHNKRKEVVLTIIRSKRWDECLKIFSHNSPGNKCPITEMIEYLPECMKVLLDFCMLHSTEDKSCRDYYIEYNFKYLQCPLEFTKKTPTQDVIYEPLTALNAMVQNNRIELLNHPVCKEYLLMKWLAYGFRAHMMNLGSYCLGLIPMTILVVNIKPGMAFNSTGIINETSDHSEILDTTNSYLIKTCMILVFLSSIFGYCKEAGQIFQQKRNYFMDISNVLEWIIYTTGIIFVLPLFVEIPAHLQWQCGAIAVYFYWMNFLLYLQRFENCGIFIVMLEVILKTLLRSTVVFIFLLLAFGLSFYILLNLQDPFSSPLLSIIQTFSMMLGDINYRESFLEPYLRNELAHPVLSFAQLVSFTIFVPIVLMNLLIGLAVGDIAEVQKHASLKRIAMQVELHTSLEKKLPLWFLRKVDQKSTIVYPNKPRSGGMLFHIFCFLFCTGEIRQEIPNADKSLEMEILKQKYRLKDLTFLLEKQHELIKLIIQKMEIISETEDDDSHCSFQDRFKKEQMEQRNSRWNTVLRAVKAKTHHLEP

SMILES | EC50 [nM] | pEC50 values for TRPA1 agonism
COC(=O)c1ccc2c(c1)C=Nc1ccccc1C2 [Compound 1] | 93.3 | 
COC(=O)c1ccc2c(c1)Cc1ccccc1C=N2 [Compound 3] |  | 9.24
O=C(O)c1cccc2c1Cc1ccccc1N=C2 [Compound 4] | 363 | 
CCN(CC)C(=O)c1cccc2c1Cc1ccccc1N=C2 [Compound 5] | 44.7 | 
COCCCNC(=O)c1cccc2c1Cc1ccccc1N=C2 [Compound 6] | 8.71 | 
COCCCNC(=O)c1cccc2c1Cc1ccccc1N=C2 [Compound 7] | 5.89 | 
CN1CCN(C(=O)c2ccc3c(c2)Cc2ccccc2C=N3)CC1 [Compound 8] | 3.16 | 
COC(=O)c1ccc2c(c1)Oc1ccccc1N=C2 [Compound 10] |  | 7.28
COC(=O)c1cccc2c1Oc1ccccc1N=C2 [Compound 11] | 0.0813 | 
COC(=O)c1cccc2c1Oc1ccccc1N=C2 [Compound 12] |  | 10.22
CCCCOC(=O)c1cccc2c1Cc1ccccc1N=C2 [Compound 13] |  | 8.07
CCCCOC(=O)c1cccc2c1Cc1ccccc1N=C2 [Compound 14] | 5.62 | 
CN1CCN(C(=O)c2ccc3c(c2)Cc2ccccc2N=C3)CC1 [Compound 15] | 1620 | 
COC(=O)c1cccc2c1Cc1ccccc1C=N2 [Compound 17] |  | 9.24
COC(=O)c1cccc2c1N=Cc1ccccc1C2 [Compound 18] | 27.5 | 
COC(=O)c1cccc2c1C=Nc1ccccc1C2 [Compound 19] | 28.8 | 
COC(=O)c1ccc2c(c1)N=Cc1ccccc1C2 [Compound 20] | 28.2 | 
NC(=O)c1cccc2c1Oc1ccccc1N=C2 [Compound 21] |  | 10.12
COC(=O)c1cccc2c1Oc1ccccc1C=N2 [Compound 23] |  | 9.93
COC(=O)c1cccc2c1Oc1ccccc1C=N2 [Compound 24] | 0.0741 | 
COC(=O)c1cccc2c1Cc1ccccc1C=N2 [Compound 25] | 0.447 | 
COC(=O)c1cccc2c1N=Cc1ccccc1C2 [Compound 26] | 38 | 
